Paper PMC9283524 (Nature Communications, 2022)
Where “and” joins values, the source holds several entries; their conditions need not be identical. Equal values may be shown once. Read-outs that look alike come from different tables or passages of the source.

Key:
turkey β1-AR E233^5.64A = turkey β1-AR E233^5.64A (Meleagris gallopavo, UniProt P07700, E233A); type: cell-based
Experimental: (§1) CHO cells (transfected with a control empty vector or wild-type or mutant turkey β1-AR) were plated onto six-well plates, and were pre-incubated with culture medium buffered with 0.5 mM IBMX for 30 min at 37 °C[20]. […] After culture medium removal, cells were treated with 0.1 M HCl for 10 minutes at room temperature. After centrifugation, the supernatant was used for cAMP quantification using the Direct Cyclic AMP Enzyme Immunoassay kit (Enzo Life Sciences). […] The cAMP assays were repeated three times, and the data are represented as mean ± SD of the three independent experiments. The analysis was done using the log(agonist) vs. response function of Prism 8 (GraphPad)[20].

turkey β1-AR F147^ICL2A = turkey β1-AR F147^ICL2A (Meleagris gallopavo, UniProt P07700, F147A); type: cell-based
Chain of turkey β1-AR F147^ICL2A (P07700 whole entry F147A): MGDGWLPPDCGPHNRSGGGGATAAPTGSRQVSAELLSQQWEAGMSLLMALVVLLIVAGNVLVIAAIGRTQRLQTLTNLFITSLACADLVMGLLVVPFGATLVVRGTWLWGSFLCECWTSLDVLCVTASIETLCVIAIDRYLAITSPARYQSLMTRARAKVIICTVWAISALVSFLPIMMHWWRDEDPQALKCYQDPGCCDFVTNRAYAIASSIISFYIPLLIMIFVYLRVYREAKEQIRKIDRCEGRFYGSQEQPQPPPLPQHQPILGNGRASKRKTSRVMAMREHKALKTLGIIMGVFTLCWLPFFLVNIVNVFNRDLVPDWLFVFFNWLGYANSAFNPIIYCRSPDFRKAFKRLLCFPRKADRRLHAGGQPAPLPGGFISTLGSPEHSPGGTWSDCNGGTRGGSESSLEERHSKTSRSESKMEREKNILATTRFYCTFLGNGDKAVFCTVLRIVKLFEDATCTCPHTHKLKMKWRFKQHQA
Experimental: as §1

turkey β1-AR P146^ICL2A = turkey β1-AR P146^ICL2A (Meleagris gallopavo, UniProt P07700, P146A); type: cell-based
Chain of turkey β1-AR P146^ICL2A (P07700 whole entry P146A): as the sequence (P07700 whole entry F147A) above, with P146A, A147F counted along it
Experimental: as §1

turkey β1-AR Q150^ICL2A = turkey β1-AR Q150^ICL2A (Meleagris gallopavo, UniProt P07700, Q150A); type: cell-based; conditions: for cAMP level: Fig 5c,e source data, Q150A
Chain of turkey β1-AR Q150^ICL2A (P07700 whole entry Q150A): as the sequence (P07700 whole entry F147A) above, with A147F, Q150A counted along it
Experimental: as §1

turkey β1-AR Q237^5.68A = turkey β1-AR Q237^5.68A (Meleagris gallopavo, UniProt P07700, Q237A); type: cell-based; conditions: for cAMP level: Fig 5c,e source data, Q237A
Chain of turkey β1-AR Q237^5.68A (P07700 whole entry Q237A): as the sequence (P07700 whole entry F147A) above, with A147F, Q237A counted along it
Experimental: as §1

turkey β1-AR S151^ICL2A = turkey β1-AR S151^ICL2A (Meleagris gallopavo, UniProt P07700, S151A); type: cell-based; conditions: for cAMP, time course: S151ICL2A
Chain of turkey β1-AR S151^ICL2A (P07700 whole entry S151A): as the sequence (P07700 whole entry F147A) above, with A147F, S151A counted along it
Experimental: as §1

turkey β1-AR T291^6.36A = turkey β1-AR T291^6.36A (Meleagris gallopavo, UniProt P07700, T291A); type: cell-based; conditions: for cAMP level: Fig 5c,e source data, T291A
Chain of turkey β1-AR T291^6.36A (P07700 whole entry T291A): as the sequence (P07700 whole entry F147A) above, with A147F, T291A counted along it
Experimental: as §1

turkey β1-AR V230^5.61A = turkey β1-AR V230^5.61A (Meleagris gallopavo, UniProt P07700, V230A); type: cell-based; conditions: for cAMP level: Fig 5c,e source data, V230A; for cAMP, time course: V2305.61A
Chain of turkey β1-AR V230^5.61A (P07700 whole entry V230A): as the sequence (P07700 whole entry F147A) above, with A147F, V230A counted along it
Experimental: as §1

wild-type turkey β1-AR [1] = target: T1, wild-type turkey β1-AR (Meleagris gallopavo, UniProt P07700); type: cell-based
T1 sequence (P07700 whole entry): as the sequence (P07700 whole entry F147A) above, with A147F counted along it
Experimental: as §1

wild-type turkey β1-AR [2] = target: T1, wild-type turkey β1-AR; assay: cAMP assay, time course, transfected CHO cells; type: cell-based; conditions: for cAMP, time course: WT
Experimental: as §1

[3] = tested on: ligand-bound nucleotide-free β1-AR–Gs complex; type: biochemical, turkey; conditions: ligand at ~EC90; 10 μM BODIPY FL GTPγS; 25 °C; mean ± SD
Text: To investigate whether ligands with different efficacies have different effects on the stability of the intermediate state, we prepared the complex of ligand-bound β1-AR-Gs (nucleotide-free), and quantified the stability of the intermediate state complex (Fig. 7a). Fluorescently labeled BODIPY-GTPγS binding to the ligand-bound β1-AR–Gs (nucleotide-free) complex eventually leads to the dissociation of the complex to produce the fluorescently labeled product Gαs(BODIPY-GTPγS), which is detected by an increase in fluorescence (the β1-AR–Gαs(BODIPY-GTPγS)–Gβγ intermediate is very transient)[31],[35] […] The data were then fitted by nonlinear association analyses and half-life values (t1/2 = ln 2/k) were calculated based on the rate constant (Fig. 7b–e).
The reaction was initiated by adding 10 μM BODIPY™ FL GTPγS (Invitrogen). Relative fluorescence units (RFU) change was measured every 12 s for a total of 60 min at 25 °C. The BODIPY-GTPγS binding data were fitted to one phase exponential association curves using GraphPad Prism 8.

[4] = tested on: β1-AR mutants of residues that interact with Gs; assay: cAMP assay, dose-response, summary over mutants of Gs-interacting residues; type: cell-based, turkey; conditions: range over mutants, Fig. 5c,d
wild-type turkey β1-AR [5] = target: T1, wild-type turkey β1-AR; conditions: cited from earlier work
[6] = CHO, 5 min, read-out: Efficacy (% of max cAMP level)

Chain of turkey β1-AR E233^5.64A (P07700 whole entry E233A): as the sequence (P07700 whole entry F147A) above, with A147F, E233A counted along it

CC(CCc1ccc(O)cc1)NCCc1ccc(O)c(O)c1 (stereo not shown) [Dobutamine, dobutamine]
EC50 (turkey β1-AR E233^5.64A): 7.08 µM
Emax (turkey β1-AR E233^5.64A; [6]): 41 ± 3.7%
EC50 (turkey β1-AR F147^ICL2A): 11.5 µM
Emax (turkey β1-AR F147^ICL2A; [6]): 17 ± 0.2%
cAMP level (turkey β1-AR F147^ICL2A; Fig 5c,e source data, F147A, log[ligand] (M) -9): 32
EC50 (turkey β1-AR P146^ICL2A): 4.07 µM
Emax (turkey β1-AR P146^ICL2A; [6]): 38 ± 2.4%
EC50 (turkey β1-AR Q150^ICL2A): 3.39 µM
Emax (turkey β1-AR Q150^ICL2A; [6]): 44 ± 3.5%
cAMP level (turkey β1-AR Q150^ICL2A; log[ligand] (M) -3): 192 and 204 and 207
cAMP level (turkey β1-AR Q150^ICL2A; log[ligand] (M) -4): 178 and 195 and 219
cAMP level (turkey β1-AR Q150^ICL2A; log[ligand] (M) -5): 151 and 169 and 177
cAMP level (turkey β1-AR Q150^ICL2A; log[ligand] (M) -6): 58 and 69 and 73
cAMP level (turkey β1-AR Q150^ICL2A; log[ligand] (M) -7): 36 and 42 and 43
cAMP level (turkey β1-AR Q150^ICL2A; log[ligand] (M) -8): 36 and 40
cAMP level (turkey β1-AR Q150^ICL2A; log[ligand] (M) -9): 35 and 37 and 41
EC50 (turkey β1-AR Q237^5.68A): 9.55 µM
Emax (turkey β1-AR Q237^5.68A; [6]): 21 ± 1.7%
cAMP level (turkey β1-AR Q237^5.68A; log[ligand] (M) -3): 103 and 114 and 116
cAMP level (turkey β1-AR Q237^5.68A; log[ligand] (M) -4): 97 and 112 and 118
cAMP level (turkey β1-AR Q237^5.68A; log[ligand] (M) -5): 66 and 82 and 77
cAMP level (turkey β1-AR Q237^5.68A; log[ligand] (M) -6): 39 and 42
cAMP level (turkey β1-AR Q237^5.68A; log[ligand] (M) -7): 36 and 40 and 39
cAMP level (turkey β1-AR Q237^5.68A; log[ligand] (M) -8): 34 and 39 and 40
cAMP level (turkey β1-AR Q237^5.68A; log[ligand] (M) -9): 32 and 37 and 40
EC50 (turkey β1-AR S151^ICL2A): 10.5 µM
Emax (turkey β1-AR S151^ICL2A; [6]): 38 ± 1.6%
cAMP, time course (turkey β1-AR S151^ICL2A; 0 min): 33 and 34 and 31
cAMP, time course (turkey β1-AR S151^ICL2A; 0.5 min): 39 and 36 and 32
cAMP, time course (turkey β1-AR S151^ICL2A; 1 min): 38 and 36
cAMP, time course (turkey β1-AR S151^ICL2A; 2 min): 41 and 45 and 47
cAMP, time course (turkey β1-AR S151^ICL2A; 5 min): 104 and 103
cAMP, time course (turkey β1-AR S151^ICL2A; 10 min): 98 and 96 and 94
cAMP, time course (turkey β1-AR S151^ICL2A; 15 min): 58 and 63 and 55
cAMP, time course (turkey β1-AR S151^ICL2A; 20 min): 48 and 49 and 46
cAMP, time course (turkey β1-AR S151^ICL2A; 25 min): 44 and 46 and 42
cAMP, time course (turkey β1-AR S151^ICL2A; 30 min): 42 and 49 and 46
EC50 (turkey β1-AR T291^6.36A): 6.61 µM
Emax (turkey β1-AR T291^6.36A; [6]): 21 ± 1.7%
cAMP level (turkey β1-AR T291^6.36A; log[ligand] (M) -3): 106 and 116 and 114
cAMP level (turkey β1-AR T291^6.36A; log[ligand] (M) -4): 100 and 115 and 113
cAMP level (turkey β1-AR T291^6.36A; log[ligand] (M) -5): 82 and 86 and 83
cAMP level (turkey β1-AR T291^6.36A; log[ligand] (M) -6): 40 and 42 and 41
cAMP level (turkey β1-AR T291^6.36A; log[ligand] (M) -7): 38 and 39
cAMP level (turkey β1-AR T291^6.36A; log[ligand] (M) -8): 34 and 39
cAMP level (turkey β1-AR T291^6.36A; log[ligand] (M) -9): 34 and 36 and 38
EC50 (turkey β1-AR V230^5.61A): 6.17 µM
Emax (turkey β1-AR V230^5.61A; [6]): 36 ± 1.1%
cAMP level (turkey β1-AR V230^5.61A; log[ligand] (M) -3): 167 and 175 and 168
cAMP level (turkey β1-AR V230^5.61A; log[ligand] (M) -4): 164 and 173 and 169
cAMP level (turkey β1-AR V230^5.61A; log[ligand] (M) -5): 121 and 131 and 129
cAMP level (turkey β1-AR V230^5.61A; log[ligand] (M) -6): 39 and 44 and 43
cAMP level (turkey β1-AR V230^5.61A; log[ligand] (M) -7): 36 and 40 and 38
cAMP level (turkey β1-AR V230^5.61A; log[ligand] (M) -8): 35 and 37
cAMP level (turkey β1-AR V230^5.61A; log[ligand] (M) -9): 32 and 37 and 36
cAMP, time course (turkey β1-AR V230^5.61A; 0 min): 30 and 28 and 33
cAMP, time course (turkey β1-AR V230^5.61A; 0.5 min): 32 and 35 and 38
cAMP, time course (turkey β1-AR V230^5.61A; 1 min): 34 and 37 and 35
cAMP, time course (turkey β1-AR V230^5.61A; 2 min): 45 and 41 and 43
cAMP, time course (turkey β1-AR V230^5.61A; 5 min): 126 and 122 and 128
cAMP, time course (turkey β1-AR V230^5.61A; 10 min): 106 and 105 and 108
cAMP, time course (turkey β1-AR V230^5.61A; 15 min): 61 and 56
cAMP, time course (turkey β1-AR V230^5.61A; 20 min): 52 and 50 and 51
cAMP, time course (turkey β1-AR V230^5.61A; 25 min): 46 and 44 and 47
cAMP, time course (turkey β1-AR V230^5.61A; 30 min): 53 and 47 and 55
EC50 (wild-type turkey β1-AR [1]): 1.58 µM
Emax (wild-type turkey β1-AR [1]; [6]): 100%
cAMP, time course (wild-type turkey β1-AR [2]; 0 min): 34 and 32 and 33
cAMP, time course (wild-type turkey β1-AR [2]; 0.5 min): 35 and 36 and 37
cAMP, time course (wild-type turkey β1-AR [2]; 1 min): 57 and 46 and 50
cAMP, time course (wild-type turkey β1-AR [2]; 2 min): 132 and 139 and 131
cAMP, time course (wild-type turkey β1-AR [2]; 5 min): 335 and 327 and 343
cAMP, time course (wild-type turkey β1-AR [2]; 10 min): 326 and 316 and 321
cAMP, time course (wild-type turkey β1-AR [2]; 15 min): 273 and 271 and 269
cAMP, time course (wild-type turkey β1-AR [2]; 20 min): 179 and 172 and 177
cAMP, time course (wild-type turkey β1-AR [2]; 25 min): 125
cAMP signal, time course (wild-type turkey β1-AR [2]; ligand 10^-3 M, time 0 min): 30 and 31 and 29
cAMP signal, time course (wild-type turkey β1-AR [2]; ligand 10^-3 M, time 0.5 min): 33 and 38 and 31
cAMP signal, time course (wild-type turkey β1-AR [2]; ligand 10^-3 M, time 1 min): 63 and 68 and 61
cAMP signal, time course (wild-type turkey β1-AR [2]; ligand 10^-3 M, time 2 min): 163 and 166 and 154
cAMP signal, time course (wild-type turkey β1-AR [2]; ligand 10^-4 M, time 0 min): 32 and 33 and 28
cAMP signal, time course (wild-type turkey β1-AR [2]; ligand 10^-4 M, time 0.5 min): 39 and 41 and 34
cAMP signal, time course (wild-type turkey β1-AR [2]; ligand 10^-4 M, time 1 min): 55 and 61
cAMP signal, time course (wild-type turkey β1-AR [2]; ligand 10^-4 M, time 2 min): 143 and 151 and 141
cAMP signal, time course (wild-type turkey β1-AR [2]; ligand 10^-5 M, time 0 min): 29 and 33 and 31
cAMP signal, time course (wild-type turkey β1-AR [2]; ligand 10^-5 M, time 0.5 min): 34 and 38 and 33
cAMP signal, time course (wild-type turkey β1-AR [2]; ligand 10^-5 M, time 1 min): 47 and 51 and 49
cAMP signal, time course (wild-type turkey β1-AR [2]; ligand 10^-5 M, time 2 min): 133 and 145 and 130
cAMP signal, time course (wild-type turkey β1-AR [2]; ligand 10^-6 M, time 0 min): 30 and 27
cAMP signal, time course (wild-type turkey β1-AR [2]; ligand 10^-6 M, time 0.5 min): 39 and 37 and 38
cAMP signal, time course (wild-type turkey β1-AR [2]; ligand 10^-6 M, time 1 min): 54 and 56 and 55
cAMP signal, time course (wild-type turkey β1-AR [2]; ligand 10^-6 M, time 2 min): 124 and 122 and 120
cAMP signal, time course (wild-type turkey β1-AR [2]; ligand 10^-7 M, time 0 min): 28 and 33 and 26
cAMP signal, time course (wild-type turkey β1-AR [2]; ligand 10^-7 M, time 0.5 min): 34 and 36 and 32
cAMP signal, time course (wild-type turkey β1-AR [2]; ligand 10^-7 M, time 1 min): 37 and 41 and 36
cAMP signal, time course (wild-type turkey β1-AR [2]; ligand 10^-7 M, time 2 min): 50 and 56
cAMP signal, time course (wild-type turkey β1-AR [2]; ligand 10^-8 M, time 0 min): 27 and 28 and 26
cAMP signal, time course (wild-type turkey β1-AR [2]; ligand 10^-8 M, time 0.5 min): 31 and 33 and 29
cAMP signal, time course (wild-type turkey β1-AR [2]; ligand 10^-8 M, time 1 min): 34 and 37
cAMP signal, time course (wild-type turkey β1-AR [2]; ligand 10^-8 M, time 2 min): 43 and 44
cAMP signal, time course (wild-type turkey β1-AR [2]; ligand 10^-9 M, time 0 min): 27 and 31 and 26
cAMP signal, time course (wild-type turkey β1-AR [2]; ligand 10^-9 M, time 0.5 min): 31 and 36 and 32
cAMP signal, time course (wild-type turkey β1-AR [2]; ligand 10^-9 M, time 1 min): 32 and 34 and 27
cAMP signal, time course (wild-type turkey β1-AR [2]; ligand 10^-9 M, time 2 min): 37 and 40 and 35
time-dependent cAMP response (phases) (wild-type turkey β1-AR [2]; near-saturating concentration (EC90), Fig. 6): a slower signal activation phase and an even slower signal termination phase
Complex half-life [3]: 6.9 ± 0.6 min
change of EC50 by β1-AR mutations [4]: 2 to 7 fold
reduction of the cAMP response by β1-AR mutations [4]: 17–44%
ligand efficacy class (wild-type turkey β1-AR [5]): partial agonist
